As usually defined, the IC50 is the concentration that inhibits the measured activity by half.

This is an account of results in US11285156B2, “Substituted piperazines as KRAS G12C inhibitors” (Amgen Inc., priority 2018, dated 2022).

One test deals with GDP-bound KRAS protein (aa 1-169), containing both G12C and C118A amino acid substitutions (Homo sapiens (Human), UniProt P01116, C118A/G12C). Nature of the test: Coupled nucleotide exchange assay (SOS-mediated nucleotide exchange, AlphaScreen). It counts as biochemical. The settings on record: 5 min compound pre-incubation. On the technique in general: Bead proximity is the source of the signal in Alpha formats.
GDP-bound KRAS protein (aa 1-169), containing both G12C and C118A amino acid substitutions, sequence (P01116 other isoform, or with tags, fused parts or gaps G12C/C118A): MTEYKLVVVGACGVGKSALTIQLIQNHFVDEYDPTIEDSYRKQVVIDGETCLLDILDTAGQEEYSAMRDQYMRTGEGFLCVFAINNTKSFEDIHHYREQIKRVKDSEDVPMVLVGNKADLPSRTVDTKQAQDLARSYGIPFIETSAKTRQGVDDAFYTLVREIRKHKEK
With `C=CC(=O)N1C[C@H](C)N(c2nc(=O)n(-c3c(C)ccnc3C(C)C)c3nc(N4CCCCC4C)c(Cl)cc23)C[C@H]1C` (mixture of isomers) [Example 69-12, (M)-6-Chloro-4-[(2S,5R)-2,5-dimethyl-4-prop-2-enoyl-piperazin-1-yl]-1-(2-isopropyl-4-methyl-3-pyridyl)-7-[(2SR)-2-methyl-1-piperidyl]pyrido[2,3-d]pyrimidin-2-one], the “Coupled exchange IC50 (5 min; μM)” value came to 2.88 µM.

`C=CC(=O)N1C[C@H](C)N(c2nc(=O)n(-c3c(C)cc(CN(C)C)cc3C(C)C)c3nc(-c4ccccc4F)c(Cl)cc23)C[C@H]1C` (single isomer, unassigned) [Example 121-4]: the “Coupled exchange IC50 (5 min; μM)” value amounted to 1.48 µM.

The test is the same for the next values; noted with them: read-out: Coupled exchange IC50 (5 min; μM); 5 min compound pre-incubation.
As for `C=CC(=O)N1C[C@H](C)N(c2nc(=O)n(-c3c(CN4CCCC4)cccc3C(C)C)c3nc(-c4ccccc4F)c(Cl)cc23)C[C@H]1C` (single isomer, unassigned) [Example 80-10-1], the IC50 is 2.04 µM.

Consider `C=CC(=O)N1C[C@H](C)N(c2nc(=O)n(-c3c(CN(C)C)cccc3C(C)C)c3nc(-c4ccccc4F)c(Cl)cc23)C[C@H]1C` (single isomer, unassigned) [Example 80-14-1], for which the IC50 is 1.26 µM.

Take `C=CC(=O)N1C[C@H](C)N(c2nc(=O)n(-c3c(CN(C)C)ccnc3C(C)C)c3nc(-c4ccccc4F)c(Cl)cc23)C[C@H]1C` (single isomer, unassigned) [Example 80-16-2]: the IC50 is 0.903 µM.

On to `C=CC(=O)N1C[C@H](C)N(c2nc(=O)n(-c3c(CN(C)C)ncnc3C(C)C)c3nc(-c4ccccc4F)c(Cl)cc23)C[C@H]1C` (single isomer, unassigned) [Example 80-18-1], for which the IC50 stood at 1.39 µM.

Regarding `C=CC(=O)N1C[C@H](C)N(c2nc(=O)n(-c3c(C)cc(CN(C)C)cc3C(C)C)c3nc(-c4ccccc4F)c(F)cc23)C[C@H]1C` (single isomer, unassigned) [Example 80-20-1], the IC50 is 13.9 µM.

Turning to `C=CC(=O)N1C[C@H](C)N(c2nc(=O)n(-c3c(C)cc(CN(C)C)cc3C(C)C)c3nc(-c4c(O)cccc4F)c(F)cc23)C[C@H]1C` (single isomer, unassigned) [Example 80-21-1], the IC50 was 0.949 µM.

`C=CC(=O)N1C[C@H](C)N(c2nc(=O)n(-c3c(Cl)ncnc3C(C)C)c3nc(-c4ccccc4C)c(Cl)cc23)C[C@H]1C` (single isomer, unassigned) [Example 102-6-2]: the IC50 worked out at 0.726 µM.

As to `C=CC(=O)N1C[C@H](C)N(c2nc(=O)n(-c3c(C)cc(P(C)(C)=O)cc3C(C)C)c3nc(-c4ccccc4F)c(Cl)cc23)C[C@H]1C` (single isomer, unassigned) [Example 102-7-2], the IC50 stood at 5.28 µM.

In the case of `C=CC(=O)N1C[C@H](C)N(c2nc(=O)n(-c3c(N(C)C)ccnc3C(C)C)c3nc(-c4ccccc4C(C)C)c(Cl)cc23)C[C@H]1C` (single isomer, unassigned) [Example 103-1-1], the IC50 came out at 1.26 µM.

As to `C=CC(=O)N1C[C@H](C)N(c2nc(=O)n(-c3c(N(CC)CC)ccnc3C(C)C)c3nc(-c4ccccc4C(C)C)c(Cl)cc23)C[C@H]1C` (single isomer, unassigned) [Example 103-6-1], the IC50 was determined as 1.15 µM.

Regarding `C=CC(=O)N1C[C@H](C)N(c2nc(=O)n(-c3c(N(C)C)ccnc3C(C)C)c3nc(-c4ccccc4C)c(Cl)cc23)C[C@H]1C` (single isomer, unassigned) [Example 103-7-1], the IC50 was 0.653 µM.

As to `C=CC(=O)N1C[C@H](C)N(c2nc(=O)n(-c3c(C)ccnc3C(C)C)c3nc(-c4ccccc4F)c(Cl)nc23)C[C@H]1C` (single isomer, unassigned) [Example 106-6-1], the IC50 is 3.67 µM.

On to `C=CC(=O)N1C[C@H](C)N(c2nc(=O)n(-c3c(CC)ncnc3C(C)C)c3nc(-c4ccccc4C)c(Cl)cc23)C[C@H]1C` (single isomer, unassigned) [Example 109-2-2], for which the IC50 was determined as 0.226 µM.

Consider `C=CC(=O)N1C[C@H](C)N(c2nc(=O)n(-c3c(N(C)C)ccnc3C(C)C)c3nc(-c4c(F)cccc4NC(=O)CC)c(Cl)cc23)C[C@H]1C` (single isomer, unassigned) [Example 122-2-1], for which the IC50 is 17.3 µM.
